Experiment: Dose–response curve of purified […]s with phenylalanine
Type: biochemical
Description: Fig. 3 Dose–response curves and fluorescence spectrums of […]s. a, c, e, g, i, k Dose–response curve of purified […]s with increasing concentrations of ligand in 100 mM Tris-HCl buffer (pH=7.5). The normalized ΔF/F0 value increased after ligand binding. All data shown are mean ± S.D. (n = 3 biologically independent samples). b, d, f, h, j, l The fluorescence spectra of […]s changed as the ligand concentration increased. All data shown are mean ± S.D. (n = 3 biologically independent samples). Source data are provided as a Source data file.
Fig. 4 Engineering ligand specificity of GrsA-PheA for generating […]s. a The selectivity-conferring code of Phe and Leu A domains. b–f Dose–response curve of purified […]s with increasing concentrations of ligands in 100 mM Tris-HCl buffer (pH=7.5). All data shown are means ± S.D. (n = 3 biologically independent samples). g A series of […] reactions was tested to show the […]’s specificity with 20 proteinogenic amino acids. The values on the heatmap represent the ΔF/F0 value normalized to each […]’s maximal ΔF/F0 value ((ΔF/F0)/maximal ΔF/F0). The concentrations of 20 amino acids were 100 μM. The color indicates the average value of three independent biological replicates after 15 min. All data shown are means ± S.D. (n = 3 biologically independent samples). Source data are provided as a Source data file.
The study conducted dose–response curve, substrate specificity, and fluorescent spectrum analyses in 100-mM Tris buffer (pH = 7.5), while pH stability experiments were performed in 100-mM Tris buffer at three different pH values (6.5, 7.5, and 8.5) at room temperature. […] protein at a concentration of 0.75 μM, various small molecule concentrations, 1 mM ATP, and 2.5 mM MgCl2 were used in the experiments. Fluorescent signals were detected using a Microplate Reader (Synergy H4, Bio Tek) at an excitation/emission wavelength of 460 nm/510 nm or 480 nm/510 nm. The dose-response curve was determined immediately after the addition of the analyte. The total duration of the measurement was 15 min, with readings taken at one-minute intervals. The dose-response curve was plotted using the fluorescence values obtained after achieving stability in the fluorescence signal. The dose-response curves were fitted using the logistic model LOGISTIC5 available in Origin 2021, which could provide a more adequate fit to asymmetric dose-response data[62],[63]. Excitation spectra were scanned from 300 to 540 nm with a step size of 5 nm, and the emission wavelength was set to 560 nm. Emission spectra were scanned from 470 to 700 nm with a step size of 5 nm, and the excitation wavelength was set to 450 nm. The thermal stability of […] was analyzed using the UNcle multifunctional protein stability analysis system. Measurements were performed in 20 mM MOPS buffer with 2 mM DTT at a sample concentration of 1 mg/mL. Absolute fluorescence quantum yields were measured using an absolute photoluminescence quantum yield spectrometer (FS5, Edinburgh).

Question: Which “AVE, dose-response Fig. 4 b” value (substrate Phe 0.001 μM) does the source give for `N[C@@H](Cc1ccccc1)C(=O)O` [Phe] here?
Answer: 0

Question: And the “AVE, dose-response Fig. 4 b” value (substrate Phe 0.005 μM)?
Answer: 0.04668

Question: What about the “AVE, dose-response Fig. 4 b” value (substrate Phe 0.01 μM) of the same molecule?
Answer: 0.05356

Question: And the “AVE, dose-response Fig. 4 b” value (substrate Phe 0.05 μM)?
Answer: 0.1413

Question: And the “AVE, dose-response Fig. 4 b” value (substrate Phe 0.1 μM)?
Answer: 0.2634

Question: And the “AVE, dose-response Fig. 4 b” value (substrate Phe 0.5 μM)?
Answer: 0.9215

Question: What about the “AVE, dose-response Fig. 4 b” value (substrate Phe 1 μM) of the same molecule?
Answer: 1.384

Question: What about the “AVE, dose-response Fig. 4 b” value (substrate Phe 5 μM) of the same molecule?
Answer: 2.412

Question: What about the “AVE, dose-response Fig. 4 b” value (substrate Phe 10 μM) of the same molecule?
Answer: 2.788

Question: What about the “AVE, dose-response Fig. 4 b” value (substrate Phe 25 μM) of the same molecule?
Answer: 3.108

Question: And the “AVE, dose-response Fig. 4 b” value (substrate Phe 50 μM)?
Answer: 3.25

Question: What about the “AVE, dose-response Fig. 4 b” value (substrate Phe 100 μM) of the same molecule?
Answer: 3.385

Question: And the “AVE, dose-response Fig. 4 c” value (substrate Phe 0.5 μM)?
Answer: 0

Question: And the “AVE, dose-response Fig. 4 c” value (substrate Phe 1 μM)?
Answer: 0.02176

Question: What about the “AVE, dose-response Fig. 4 c” value (substrate Phe 2 μM) of the same molecule?
Answer: 0.04684

Question: What about the “AVE, dose-response Fig. 4 c” value (substrate Phe 5 μM) of the same molecule?
Answer: 0.0476

Question: And the “AVE, dose-response Fig. 4 c” value (substrate Phe 10 μM)?
Answer: 0.102

Question: And the “AVE, dose-response Fig. 4 c” value (substrate Phe 20 μM)?
Answer: 0.1609

Question: And the “AVE, dose-response Fig. 4 c” value (substrate Phe 50 μM)?
Answer: 0.1914

Question: What about the “AVE, dose-response Fig. 4 c” value (substrate Phe 100 μM) of the same molecule?
Answer: 0.2096

Question: And the “AVE, dose-response Fig. 4 c” value (substrate Phe 200 μM)?
Answer: 0.2332

Question: And the “AVE, dose-response Fig. 4 c” value (substrate Phe 500 μM)?
Answer: 0.2962

Question: What about the “AVE, dose-response Fig. 4 c” value (substrate Phe 750 μM) of the same molecule?
Answer: 0.3509

Question: And the “AVE, dose-response Fig. 4 c” value (substrate Phe 1000 μM)?
Answer: 0.2649

Question: And the “AVE, dose-response Fig. 4 e” value (substrate Phe 0.1 μM)?
Answer: -6.4763e-17

Question: And the “AVE, dose-response Fig. 4 e” value (substrate Phe 0.2 μM)?
Answer: 0.02607

Question: And the “AVE, dose-response Fig. 4 e” value (substrate Phe 1 μM)?
Answer: 0.02065

Question: What about the “AVE, dose-response Fig. 4 e” value (substrate Phe 2 μM) of the same molecule?
Answer: 0.01654

Question: What about the “AVE, dose-response Fig. 4 e” value (substrate Phe 10 μM) of the same molecule?
Answer: 0.06065

Question: And the “AVE, dose-response Fig. 4 e” value (substrate Phe 20 μM)?
Answer: 0.08275

Question: And the “AVE, dose-response Fig. 4 e” value (substrate Phe 100 μM)?
Answer: 0.1347

Question: And the “AVE, dose-response Fig. 4 e” value (substrate Phe 200 μM)?
Answer: 0.2309

Question: What about the “AVE, dose-response Fig. 4 e” value (substrate Phe 500 μM) of the same molecule?
Answer: 0.3796

Question: What about the “AVE, dose-response Fig. 4 e” value (substrate Phe 1000 μM) of the same molecule?
Answer: 0.4613

Question: And the “AVE, dose-response Fig. 4 e” value (substrate Phe 1500 μM)?
Answer: 0.4963

Question: And the “AVE, dose-response Fig. 4 e” value (substrate Phe 2000 μM)?
Answer: 0.5161

Question: And the “AVE, dose-response Fig. 4 f” value (substrate Phe 0.0001 μM)?
Answer: -0.000122

Question: And the “AVE, dose-response Fig. 4 f” value (substrate Phe 0.001 μM)?
Answer: 0.002395

Question: And the “AVE, dose-response Fig. 4 f” value (substrate Phe 0.01 μM)?
Answer: 0.009697

Question: What about the “AVE, dose-response Fig. 4 f” value (substrate Phe 0.1 μM) of the same molecule?
Answer: 0.01529

Question: What about the “AVE, dose-response Fig. 4 f” value (substrate Phe 1 μM) of the same molecule?
Answer: -0.009047

Question: What about the “AVE, dose-response Fig. 4 f” value (substrate Phe 10 μM) of the same molecule?
Answer: 0.009571

Question: And the “AVE, dose-response Fig. 4 f” value (substrate Phe 50 μM)?
Answer: 0.1062

Question: And the “AVE, dose-response Fig. 4 f” value (substrate Phe 100 μM)?
Answer: 0.2173

Question: What about the “AVE, dose-response Fig. 4 f” value (substrate Phe 500 μM) of the same molecule?
Answer: 0.5047

Question: What about the “AVE, dose-response Fig. 4 f” value (substrate Phe 1000 μM) of the same molecule?
Answer: 0.643

Question: And the “AVE, dose-response Fig. 4 f” value (substrate Phe 5000 μM)?
Answer: 0.6763

Question: What about the “AVE, dose-response Fig. 4 f” value (substrate Phe 10000 μM) of the same molecule?
Answer: 0.7368

Question: What about the “AVE, dose-response Fig. 4 d” value (substrate Phe 0.01 μM) of the same molecule?
Answer: 0.02814

Question: And the “AVE, dose-response Fig. 4 d” value (substrate Phe 0.1 μM)?
Answer: 0.03519

Question: And the “AVE, dose-response Fig. 4 d” value (substrate Phe 1 μM)?
Answer: 0.04924

Question: What about the “AVE, dose-response Fig. 4 d” value (substrate Phe 5 μM) of the same molecule?
Answer: 0.06403

Question: What about the “AVE, dose-response Fig. 4 d” value (substrate Phe 10 μM) of the same molecule?
Answer: 0.08037

Question: What about the “AVE, dose-response Fig. 4 d” value (substrate Phe 50 μM) of the same molecule?
Answer: 0.1108

Question: And the “AVE, dose-response Fig. 4 d” value (substrate Phe 100 μM)?
Answer: 0.1713

Question: What about the “AVE, dose-response Fig. 4 d” value (substrate Phe 200 μM) of the same molecule?
Answer: 0.2373

Question: And the “AVE, dose-response Fig. 4 d” value (substrate Phe 500 μM)?
Answer: 0.3495

Question: And the “AVE, dose-response Fig. 4 d” value (substrate Phe 750 μM)?
Answer: 0.3806

Question: And the “AVE, dose-response Fig. 4 d” value (substrate Phe 1000 μM)?
Answer: 0.3842

Question: What about the “fluorescence response of GECFINDER, AVE of 3 repeats” value (from here on “fluorescence response of GECFINDER”) (Supplementary Fig. 3 a, Phe 0.001 μM) of the same molecule?
Answer: 0

Question: And the “fluorescence response of GECFINDER” value (Supplementary Fig. 3 a, Phe 0.005 μM)?
Answer: 0.03394

Question: What about the “fluorescence response of GECFINDER” value (Supplementary Fig. 3 a, Phe 0.01 μM) of the same molecule?
Answer: 0.09128

Question: And the “fluorescence response of GECFINDER” value (Supplementary Fig. 3 a, Phe 0.1 μM)?
Answer: 0.1211

Question: What about the “fluorescence response of GECFINDER” value (Supplementary Fig. 3 a, Phe 1 μM) of the same molecule?
Answer: 0.1406

Question: And the “fluorescence response of GECFINDER” value (Supplementary Fig. 3 a, Phe 10 μM)?
Answer: 0.1472

Question: And the “fluorescence response of GECFINDER” value (Supplementary Fig. 3 a, Phe 50 μM)?
Answer: 0.1578

Question: And the “fluorescence response of GECFINDER” value (Supplementary Fig. 3 a, Phe 100 μM)?
Answer: 0.198

Question: What about the “fluorescence response of GECFINDER” value (Supplementary Fig. 3 a, Phe 500 μM) of the same molecule?
Answer: 0.3919

Question: And the “fluorescence response of GECFINDER” value (Supplementary Fig. 3 a, Phe 1000 μM)?
Answer: 0.5221

Question: What about the “fluorescence response of GECFINDER” value (Supplementary Fig. 3 a, Phe 5000 μM) of the same molecule?
Answer: 0.7757

Question: What about the “fluorescence response of GECFINDER” value (Supplementary Fig. 3 a, Phe 10000 μM) of the same molecule?
Answer: 0.7576

Question: And the “fluorescence response of GECFINDER” value (Supplementary Fig. 3 b, Phe 0.001 μM)?
Answer: -4.337e-17

Question: And the “fluorescence response of GECFINDER” value (Supplementary Fig. 3 b, Phe 0.005 μM)?
Answer: 0.01069

Question: And the “fluorescence response of GECFINDER” value (Supplementary Fig. 3 b, Phe 0.01 μM)?
Answer: -0.003867

Question: What about the “fluorescence response of GECFINDER” value (Supplementary Fig. 3 b, Phe 0.1 μM) of the same molecule?
Answer: 0.001408

Question: What about the “fluorescence response of GECFINDER” value (Supplementary Fig. 3 b, Phe 1 μM) of the same molecule?
Answer: 0.04065

Question: What about the “fluorescence response of GECFINDER” value (Supplementary Fig. 3 b, Phe 10 μM) of the same molecule?
Answer: 0.112

Question: What about the “fluorescence response of GECFINDER” value (Supplementary Fig. 3 b, Phe 50 μM) of the same molecule?
Answer: 0.2916

Question: And the “fluorescence response of GECFINDER” value (Supplementary Fig. 3 b, Phe 100 μM)?
Answer: 0.4046

Question: And the “fluorescence response of GECFINDER” value (Supplementary Fig. 3 b, Phe 500 μM)?
Answer: 0.8587

Question: And the “fluorescence response of GECFINDER” value (Supplementary Fig. 3 b, Phe 1000 μM)?
Answer: 1.065

Question: What about the “fluorescence response of GECFINDER” value (Supplementary Fig. 3 b, Phe 5000 μM) of the same molecule?
Answer: 1.452

Question: And the “fluorescence response of GECFINDER” value (Supplementary Fig. 3 b, Phe 10000 μM)?
Answer: 1.455

From PMC10590383, “Repurposing conformational changes in ANL superfamily enzymes to rapidly generate biosensors for organic and amino acids” (Nature Communications, 2023)
